These results are taken from patent US9458153B2, “Dihydroquinolizinones for the treatment and prophylaxis of hepatitis B virus infection” (Hoffmann-La Roche Inc., priority 2014, dated 2016).

The test system of one experiment is HBV DNA. As to the kind of experiment: HBV DNA assay (real-time qPCR/TaqMan of extracellular HBV DNA copy number, HepG2.2.15 cells). The class given is cell-based. Conditions: Anti HBV DNA production activity in HepG2.2.15 cells, supernatant collected six days after initial administration. As to the method: HepG2.2.15 cells (Acs et al. Proc Natl Acad Sci USA, 84, (1987), 4641-4), a constitutively HBV-expressing cell line were cultured in DMEM+Glutamax-I medium (Invitrogen, Carlsbad, Calif., USA), supplemented with 10% fetal bovine serum (Invitrogen) and G418 (Invitrogen) at a final concentration of 200 mg/L and maintained in 5% CO2 at 37° C.
The assay employs real-time qPCR (TaqMan) to directly measure extracellular HBV DNA copy number. HepG2.2.15 cells were plated in 96-well microtiter plates. Only the interior wells were utilized to reduce “edge effects” observed during cell culture, the exterior wells were filled with complete medium to help minimize sample evaporation. On the following day, the HepG2.2.15 cells were washed and the medium was replaced with complete medium containing various concentrations of a test compound in triplicate. 3TC was used as the positive control, while media alone was added to cells as a negative control (virus control, VC). Three days later, the culture medium was replaced with fresh medium containing the appropriately diluted drug. Six days following the initial administration of the test compound, the cell culture supernatant was collected, treated with pronase and then used in a real-time qPCR/TaqMan assay to determine HBV DNA copy numbers. Antiviral activity was calculated from the reduction in HBV DNA levels (IC50).
The compounds of the present invention were tested for their capacity to inhibit HBV DNA as described herein.
For orientation: Real-time PCR tracks product formation cycle by cycle.

Another experiment has as its system HBsAg. As to the kind of experiment: HBsAg assay (chemiluminescence immunoassay of secreted HBsAg in HepG2.2.15 culture supernatant). The format is cell-based, HBV. The settings on record: HepG2.2.15 cells, CLIA kit. In short, it runs like this: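 HepG2.2.15 cells, which constitutively express HBV, were seeded in duplicate and treated with three-fold serial compound dilutions at 1% DMSO final. Secreted HBsAg in culture supernatant was measured semi-quantitatively by chemiluminescence immunoassay. IC50 was extrapolated from dose-response curves.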

Where [1] appears, read: Hepatitis B virus, HepG2.2.15, 144 h.
[2] abbreviates: HBsAg secretion reduced by 50% vs no drug control.
Where [3] appears, read: Hepatitis B virus, HepG2.2.15, HBsAg secretion reduced by 50% vs no drug control.
The mark [4] stands for this setting: HBsAg secretion reduced by 50% vs no drug control, hydrochloride.

Where a name gives a salt, the structure may show the parent alone.

For orientation: IC50 means the concentration needed to halve the response being measured. A higher IC50 goes with weaker potency. With `CCOc1cc2c(cc1OCC)-c1cc(=O)c(C(=O)O)cn1C(CC)C2` (single isomer, unassigned; (+)) [Example 6, (+)-9,10-diethoxy-6-ethyl-2-oxo-6,7-dihydrobenzo[a]quinolizine-3-carboxylic acid], in the experiment with HBV DNA, the IC50 amounted to 6 nM. As for `CCC1Cc2cc(OCC(F)(F)F)c(OC)cc2-c2cc(=O)c(C(=O)O)cn21` (single isomer, unassigned; (+)) [Example 11, (+)-6-ethyl-10-methoxy-2-oxo-9-(2,2,2-trifluoroethoxy)-6,7-dihydrobenzo[a]quinolizine-3-carboxylic acid], the results for the IC50 in the experiment on HBV DNA (setting [1]) and in the experiment with HBsAg (setting [2]) were 4 nM and 17 nM, respectively.

For the molecule `CCCOc1cc2c(cc1OC)-c1cc(=O)c(C(=O)O)cn1C(CC)C2` (single isomer, unassigned; (+)) [Example 79, (+)-6-ethyl-10-methoxy-2-oxo-9-propoxyl-6,7-dihydrobenzo[a]quinolizine-3-carboxylic acid], the IC50 is 2 nM with HBV DNA (setting [1]) and 4 nM in the experiment with HBsAg (setting [2]).

As for `COc1cc2c(cc1OC)-c1cc(=O)c(C(=O)O)cn1C(C(C)C)C2` (single isomer, unassigned; (+)) [Example 99, (+)-6-isopropyl-9,10-dimethoxy-2-oxo-6,7-dihydrobenzo[a]quinolizine-3-carboxylic acid], the figures for the IC50 in the experiment with HBV DNA (setting [1]) and in the experiment with HBsAg (setting [2]) were 3 nM and 16 nM, respectively. With `CCCOc1cc2c(cc1OC)-c1cc(=O)c(C(=O)O)cn1C(CC)C2` (stereo not shown) [Example 78, 6-ethyl-10-methoxy-2-oxo-9-propoxy-6,7-dihydrobenzo[a]quinolizine-3-carboxylic acid], the IC50 in the experiment on HBV DNA amounted to 4 nM. Regarding `COc1cc2c(cc1OCCCCCNS(C)(=O)=O)CC(C(C)(C)C)n1cc(C(=O)O)c(=O)cc1-2` (stereo not shown) [Example 176, 6-tert-butyl-9-[5-(methanesulfonamido)pentoxy]-10-methoxy-2-oxo-6,7-dihydrobenzo[a]quinolizine-3-carboxylic acid], the IC50 in the experiment with HBsAg (setting [3]) amounted to 3 nM.

Turning to `COc1cc2c(cc1OCCN)CC(C(C)(C)C)n1cc(C(=O)O)c(=O)cc1-2` (stereo not shown) [Example 177, 9-(2-aminoethoxy)-6-tert-butyl-10-methoxy-2-oxo-6,7-dihydrobenzo[a]quinolizine-3-carboxylic acid], half-maximal inhibition in the experiment with HBsAg (setting [3]) (IC50) required 1380 nM. The molecule `COc1cc2c(cc1OCCCOCCN)CC(C(C)(C)C)n1cc(C(=O)O)c(=O)cc1-2` (stereo not shown) [Example 178, 9-[3-(2-aminoethoxy)propoxy]-6-tert-butyl-10-methoxy-2-oxo-6,7-dihydrobenzo[a]quinolizine-3-carboxylic acid] yielded an IC50 in the experiment with HBsAg (setting [3]) of 63 nM. In the experiment with HBsAg (setting [3]), `CCNCCOCCCOc1cc2c(cc1OC)-c1cc(=O)c(C(=O)O)cn1C(C(C)(C)C)C2` (stereo not shown) [Example 179, 6-tert-butyl-9-[3-[2-(ethylamino)ethoxy]propoxy]-10-methoxy-2-oxo-6,7-dihydrobenzo[a]quinolizine-3-carboxylic acid] came in with an IC50 of 38 nM. As for `COc1cc2c(cc1OCCC(F)F)CC(C(C)(C)C)n1cc(C(=O)O)c(=O)cc1-2` (stereo not shown) [Example 180, 6-tert-butyl-9-(3,3-difluoropropoxy)-10-methoxy-2-oxo-6,7-dihydrobenzo[a]quinolizine-3-carboxylic acid], half-maximal inhibition in the experiment with HBsAg (setting [3]) (IC50) was put at 4 nM. This IC50 is about 9.5-fold lower than that of the molecule before.

As to `CCC(F)(F)Oc1cc2c(cc1OC)-c1cc(=O)c(C(=O)O)cn1C(C(C)(C)C)C2` (stereo not shown) [Example 181, 6-tert-butyl-9-(1,1-difluoropropoxy)-10-methoxy-2-oxo-6,7-dihydrobenzo[a]quinolizine-3-carboxylic acid], 12 nM corresponded to half-maximal inhibition with HBsAg (setting [3]) (IC50). Still for that read-out and setting: the figure for `C=CC(F)(F)Oc1cc2c(cc1OC)-c1cc(=O)c(C(=O)O)cn1C(C(C)(C)C)C2` (stereo not shown) [Example 182, 6-tert-butyl-9-(1,1-difluoroallyloxy)-10-methoxy-2-oxo-6,7-dihydrobenzo[a]quinolizine-3-carboxylic acid] is 16 nM.

With `COc1cc2c(cc1OCCCSC)CC(C(C)(C)C)n1cc(C(=O)O)c(=O)cc1-2` (stereo not shown) [Example 183, 6-tert-butyl-10-methoxy-9-(3-methylsulfanylpropoxy)-2-oxo-6,7-dihydrobenzo[a]quinolizine-3-carboxylic acid], the IC50 in the experiment with HBsAg (setting [2]) came to 2 nM. That is a single-digit nanomolar value. The molecule `COc1cc2c(cc1OCCCS(C)(=O)=O)CC(C(C)(C)C)n1cc(C(=O)O)c(=O)cc1-2` (stereo not shown) [Example 186, 6-tert-butyl-10-methoxy-9-(3-methylsulfonylpropoxy)-2-oxo-6,7-dihydrobenzo[a]quinolizine-3-carboxylic acid] registered an IC50 with HBsAg (setting [2]) of 20 nM. For the molecule `COc1cc2c(cc1OCCN1CCOCC1)CC(C(C)(C)C)n1cc(C(=O)O)c(=O)cc1-2` (stereo not shown) [Example 189, 6-tert-butyl-10-methoxy-9-(2-morpholinoethoxy)-2-oxo-6,7-dihydrobenzo[a]quinolizine-3-carboxylic acid hydrochloride], the half-inhibitory concentration (IC50) in the experiment on HBsAg (setting [4]) was 18 nM. In turn, `COc1cc2c(cc1OCCCN1CCOCC1)CC(C(C)(C)C)n1cc(C(=O)O)c(=O)cc1-2` (stereo not shown) [Example 192, 6-tert-butyl-10-methoxy-9-(3-morpholinopropoxy)-2-oxo-6,7-dihydrobenzo[a]quinolizine-3-carboxylic acid hydrochloride] yielded an IC50 with HBsAg (setting [4]) of 10 nM. Compared with the last molecule, the IC50 is about 1.8-fold lower. The molecule `COc1cc2c(cc1OCCCN1CCCC1=O)CC(C(C)(C)C)n1cc(C(=O)O)c(=O)cc1-2` (stereo not shown) [Example 195, 6-tert-butyl-10-methoxy-2-oxo-9-[3-(2-oxopyrrolidin-1-yl)propoxy]-6,7-dihydrobenzo[a]quinolizine-3-carboxylic acid] had an IC50 with HBsAg (setting [3]) of 57 nM. `COc1cc2c(cc1OCCCN1CCCC1)CC(C(C)(C)C)n1cc(C(=O)O)c(=O)cc1-2` (stereo not shown) [Example 196, 6-tert-butyl-10-methoxy-2-oxo-9-(3-pyrrolidin-1-ylpropoxy)-6,7-dihydrobenzo[a]quinolizine-3-carboxylic acid]: the IC50 with HBsAg (setting [3]) came out at 120 nM. For `COCCCOc1cc2c(cc1OC)-c1cc(=O)c(C(=O)O)cn1C(C1CCC1)C2` (stereo not shown) [Example 197, 6-cyclobutyl-10-methoxy-9-(3-methoxypropoxy)-2-oxo-6,7-dihydrobenzo[a]quinolizine-3-carboxylic acid], the IC50 in the experiment on HBsAg (setting [3]) was determined as 3 nM.

As to `COc1cc2c(cc1OC)-c1cc(=O)c(C(=O)O)cn1C(CC(F)(F)F)C2` (stereo not shown) [Example 198, 9,10-dimethoxy-2-oxo-6-(2,2,2-trifluoroethyl)-6,7-dihydrobenzo[a]quinolizine-3-carboxylic acid], the concentration for half-maximal inhibition (IC50) in the experiment with HBsAg (setting [3]) worked out at 230 nM. In turn, `COCCCOc1cc2c(cc1OC)-c1cc(=O)c(C(=O)O)cn1C(CC(F)(F)F)C2` (stereo not shown) [Example 199, 10-methoxy-9-(3-methoxypropoxy)-2-oxo-6-(2,2,2-trifluoroethyl)-6,7-dihydrobenzo[a]quinolizine-3-carboxylic acid] came in with an IC50 with HBsAg (setting [2]) of 33 nM. This counts as double-digit nanomolar. Still for that read-out and setting: in the case of `COCCCOc1cc2c(cc1Cl)-c1cc(=O)c(C(=O)O)cn1C(C(C)(C)C)C2` (stereo not shown) [Example 202, 6-tert-butyl-10-chloro-9-(3-methoxypropoxy)-2-oxo-6,7-dihydrobenzo[a]quinolizine-3-carboxylic acid] it was 2 nM; in that of `COCCCOc1cc2c(cc1Cl)-c1cc(=O)c(C(=O)O)cn1C(C1(C)CC1)C2` (stereo not shown) [Example 205, 10-chloro-9-(3-methoxypropoxy)-6-(1-methylcyclopropyl)-2-oxo-6,7-dihydrobenzo[a]quinolizine-3-carboxylic acid], 1 nM. With `COc1cc2c(cc1OC)-c1cc(=O)c(C(=O)O)cn1C(Cc1ccccc1)C2` (stereo not shown) [Example 211, 6-benzyl-9,10-dimethoxy-2-oxo-6,7-dihydrobenzo[a]quinolizine-3-carboxylic acid], 8250 nM corresponded to half-maximal inhibition with HBsAg (setting [3]) (IC50).

In the experiment with HBsAg (setting [2]), `COCCCOc1cc2c(c(F)c1F)-c1cc(=O)c(C(=O)O)cn1C(C(C)C)C2` (stereo not shown) [Example 213, 10,11-difluoro-6-isopropyl-9-(3-methoxypropoxy)-2-oxo-6,7-dihydrobenzo[a]quinolizine-3-carboxylic acid] returned an IC50 of 24 nM. For `COc1cc2c(cc1OCCCn1cccn1)CC(C(C)(C)C)n1cc(C(=O)O)c(=O)cc1-2` (stereo not shown) [Example 216, 6-tert-butyl-10-methoxy-2-oxo-9-(3-pyrazol-1-ylpropoxy)-6,7-dihydrobenzo[a]quinolizine-3-carboxylic acid], in the experiment with HBsAg (setting [3]), half-maximal inhibition (IC50) was put at 6 nM. For the molecule `COc1cc2c(cc1OCCCn1cncn1)CC(C(C)(C)C)n1cc(C(=O)O)c(=O)cc1-2` (stereo not shown) [Example 217, 6-tert-butyl-10-methoxy-2-oxo-9-[3-(1,2,4-triazol-1-yl)propoxy]-6,7-dihydrobenzo[a]quinolizine-3-carboxylic acid], the midpoint of inhibition in the experiment on HBsAg (setting [3]), the IC50, lay at 34 nM. Same read-out and setting: the figure for `COc1cc2c(cc1OCCCC(=O)O)CC(C(C)(C)C)n1cc(C(=O)O)c(=O)cc1-2` (stereo not shown) [Example 218, 6-tert-butyl-9-(3-carboxypropoxy)-10-methoxy-2-oxo-6,7-dihydrobenzo[a]quinolizine-3-carboxylic acid] is 145 nM.
